Test [1] has as its target human FLAP (Homo sapiens (Human), UniProt P20292). The test is described as follows: FLAP binding assay (HTRF format). In a few lines: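 HTRF ratio read-out; two independent plates, samples in duplicate on each, values averaged across plates.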
In test [2] the test system is leukotriene pathway in human whole blood (LTB4 levels). The test is described as follows: Human whole blood assay (A23187-stimulated LTB4). The class given is cell-based. Conditions: Homo sapiens, read-out: LTB4 IC50 1:1. In a few lines: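 Single-replicate data from at least one healthy donor: compound pre-incubated 15 min at 37° Celsius in 1:1 RPMI-diluted heparinised blood, followed by 30 min calcium ionophore A23187 (7 μg/mL) challenge at 37° Celsius. LTB4 in plasma quantified by kit; IC50 via 4-parameter equation.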

[3] abbreviates: human FLAP wild type, HTRF format, average of two plates, duplicates.
Setting [4] is: human whole blood diluted 1:1 in RPMI, A23187-stimulated LTB4.

Each structure is given as a SMILES string. Counter-ions that a name gives are not always drawn. Like-named read-outs stand apart in the source and are kept apart here. Where only a bound is given, the exact number is not on record here.

Sequence of human FLAP (P20292 whole entry): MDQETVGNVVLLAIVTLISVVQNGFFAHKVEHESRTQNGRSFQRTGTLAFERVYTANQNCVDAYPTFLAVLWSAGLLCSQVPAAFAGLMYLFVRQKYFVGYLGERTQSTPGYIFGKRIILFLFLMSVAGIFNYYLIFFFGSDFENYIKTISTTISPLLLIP

The compound `Nc1ncc(-c2ccc(-c3ccccc3S(=O)(=O)CCCS(=O)(=O)C3CCCCC3)cc2F)cn1` [Example 319, 5-(2′-{[3-(Cyclohexylsulfonyl)propyl]sulfonyl}-3-fluorobiphenyl-4-yl)pyrimidin-2-amine] yielded a Ki in test [1] (setting [3]) of 204 nM. Moreover, the half-inhibitory concentration (IC50) in test [2] (setting [4]) is 3260 nM.

With `Cn1c(S(=O)(=O)c2ccccc2-c2ccc(-c3cnc(N)nc3)c(F)c2)nc2ccccc21` [Example 320, 5-{3-Fluoro-2′-[(1-methyl-1H-benzimidazol-2-yl)sulfonyl]biphenyl-4-yl}pyrimidin-2-amine], the Ki in test [1] (setting [3]) was 129 nM. Moreover, the IC50 in test [2] (setting [4]) turned out to be 1080 nM.

With `Nc1ncc(-c2ccc(-c3ccc(C(F)(F)F)cc3S(N)(=O)=O)cc2F)cn1` [Example 322, 4′-(2-Aminopyrimidin-5-yl)-3′-fluoro-4-(trifluoromethyl)biphenyl-2-sulfonamide], the Ki in test [1] (setting [3]) came to 32 nM. The IC50 in test [2] (setting [4]) came to 138 nM.

`CS(=O)(=O)c1cc(C(F)(F)F)ccc1-c1ccc(-c2cnc(N)nc2)c(F)c1` [Example 323, 5-[3-Fluoro-2′-(methylsulfonyl)-4′-(trifluoromethyl)biphenyl-4-yl]pyrimidin-2-amine] showed a Ki in test [1] (setting [3]) of 770 nM. Also, the IC50 in test [2] (setting [4]) is 6640 nM.

Take `Nc1ncc(-c2ccc(-c3ccc(C(F)(F)F)cc3S(=O)(=O)N3CCNC(=O)C3)cc2F)cn1` [Example 324, 4-{[4′-(2-Aminopyrimidin-5-yl)-3′-fluoro-4-(trifluoromethyl)biphenyl-2-yl]sulfonyl}piperazin-2-one]: in test [1] (setting [3]), affinity was put at a Ki of 19 nM. Further, the IC50 in test [2] (setting [4]) stood at 101 nM.

In the case of `CNS(=O)(=O)c1cc(C(F)(F)F)ccc1-c1ccc(-c2cnc(N)nc2)c(F)c1` [Example 325, 4′-(2-Aminopyrimidin-5-yl)-3′-fluoro-N-methyl-4-(trifluoromethyl)biphenyl-2-sulfonamide], the Ki in test [1] (setting [3]) was 4 nM. Also, the 50% inhibitory concentration (IC50) in test [2] (setting [4]) was 91 nM.

Take `Nc1ncc(-c2ccc(-c3ccc(C(F)(F)F)cc3S(=O)(=O)NCCO)cc2F)cn1` [Example 326, 4′-(2-Aminopyrimidin-5-yl)-3′-fluoro-N-(2-hydroxyethyl)-4-(trifluoromethyl)biphenyl-2-sulfonamide]: affinity in test [1] (setting [3]) was put at a Ki of 3 nM. Also, in test [2] (setting [4]), the half-inhibitory concentration (IC50) came out at 29 nM.

For `CCNS(=O)(=O)c1cc(C(F)(F)F)ccc1-c1ccc(-c2cnc(N)nc2)c(F)c1` [Example 327, 4′-(2-Aminopyrimidin-5-yl)-N-ethyl-3′-fluoro-4-(trifluoromethyl)biphenyl-2-sulfonamide], the Ki in test [1] (setting [3]) is 2 nM. In test [2] (setting [4]), the IC50 was found to be 39 nM.

With `CN1CCN(S(=O)(=O)c2cc(C(F)(F)F)ccc2-c2ccc(-c3cnc(N)nc3)c(F)c2)CC1` [Example 328, 5-{3-Fluoro-2′-[(4-methylpiperazin-1-yl)sulfonyl]-4′-(trifluoromethyl)biphenyl-4-yl}pyrimidin-2-amine], in test [1] (setting [3]), the Ki is 15 nM. In test [2] (setting [4]), the IC50 was 119 nM.

For the compound `Nc1cnc(Sc2ccccc2-c2ccc(-c3cnc(N)nc3)c(F)c2)nc1` [Example 329, 5-{2′-[(5-Aminopyrimidin-2-yl)sulfanyl]-3-fluorobiphenyl-4-yl}pyrimidin-2-amine formate salt], the Ki in test [1] (setting [3]) was 12 nM. Moreover, the IC50 in test [2] (setting [4]) amounted to 66 nM.

Take `Nc1ccnc(Sc2ccccc2-c2ccc(-c3cnc(N)nc3)c(F)c2)n1` [Example 330, 5-{2′-[(4-Aminopyrimidin-2-yl)sulfanyl]-3-fluorobiphenyl-4-yl}pyrimidin-2-amine formate salt]: the Ki in test [1] (read-out: FLAP Binding wild type HTRF Ki) is 12 nM. The IC50 in test [2] (setting [4]) is 88 nM.

In test [1] (setting [3]), `Nc1ncc(-c2ccc(-c3ccccc3Sc3ncncc3N)cc2F)cn1` [Example 331, 5-{2′-[(5-Aminopyrimidin-4-yl)sulfanyl]-3-fluorobiphenyl-4-yl}pyrimidin-2-amine formate salt] registered a Ki of 14 nM. Further, the IC50 in test [2] (setting [4]) turned out to be 62 nM.

With `Nc1ncc(-c2ccc(-c3ccccc3Sc3ncccn3)cc2F)cn1` [Example 332, 5-[3-Fluoro-2′-(pyrimidin-2-ylsulfanyl)biphenyl-4-yl]pyrimidin-2-amine hydrochloride], in test [1] (setting [3]), the affinity corresponds to a Ki of 65 nM. Also, in test [2] (setting [4]), the IC50 was found to be 125 nM.

Take `Nc1ncc(-c2ccc(-c3ccccc3Sc3cnccn3)cc2F)cn1` [Example 333, 5-[3-Fluoro-2′-(pyrazin-2-ylsulfanyl)biphenyl-4-yl]pyrimidin-2-amine hydrochloride]: the affinity in test [1] (setting [3]), expressed as Ki, was 45 nM. Moreover, the IC50 in test [2] (setting [4]) was found to be 671 nM.

Take `Nc1cc(Sc2ccccc2-c2ccc(-c3cnc(N)nc3)c(F)c2)ncn1` [Example 334, 5-{2′-[(6-Aminopyrimidin-4-yl)sulfanyl]-3-fluorobiphenyl-4-yl}pyrimidin-2-amine formate salt]: in test [1] (setting [3]), the Ki was determined as 12 nM. Moreover, in test [2] (setting [4]), the IC50 amounted to 67 nM.

On to `Nc1ncc(-c2ccc(-c3ccccc3Sc3ccnc(N)n3)cc2F)cn1` [Example 335, 4-{[4′-(2-Aminopyrimidin-5-yl)-3′-fluorobiphenyl-2-yl]sulfanyl}pyrimidin-2-amine formate salt], for which the Ki in test [1] (setting [3]) came out at 2 nM. Moreover, the IC50 in test [2] (setting [4]) worked out at 37 nM.

On to `Nc1cncc(Sc2ccccc2-c2ccc(-c3cnc(N)nc3)c(F)c2)n1` [Example 336, 5-{2′-[(6-Aminopyrazin-2-yl)sulfanyl]-3-fluorobiphenyl-4-yl}pyrimidin-2-amine formate salt], for which the Ki in test [1] (setting [3]) amounted to 4 nM. In test [2] (setting [4]), the IC50 was found to be 65 nM.

`C[Si](C)(C)CCOCSc1ccccc1-c1ccc(-c2cnc(N)nc2)c(F)c1` [Example 340, 5-[3-Fluoro-2′-({[2-(trimethylsilyl)ethoxy]methyl}sulfanyl)biphenyl-4-yl]pyrimidin-2-amine]: the affinity in test [1] (setting [3]) corresponds to a Ki of 104 nM. Further, in test [2], the IC50 turned out to be 321 nM.

In test [1] (setting [3]), `CC(C)(C)NS(=O)(=O)c1ccccc1-c1ccc(-c2ccc(N)nc2)c(F)c1` [Example 342, 4′-(6-Aminopyridin-3-yl)-N-(tert-butyl)-3′-fluoro-[1,1′-biphenyl]-2-sulfonamide] registered a Ki of 2 nM. Besides, in test [2] (setting [4]), the IC50 worked out at 117 nM.

The compound `CCN(CC)S(=O)(=O)c1ccccc1-c1ccc(-c2ccc(N)nc2)c(F)c1` [Example 343, 4′-(6-Aminopyridin-3-yl)-N,N-diethyl-3′-fluoro-[1,1′-biphenyl]-2-sulfonamide] registered a Ki in test [1] (setting [3]) of 4 nM. In test [2] (setting [4]), the IC50 stood at 57 nM.

In turn, `Nc1ccc(-c2ccc(-c3ccccc3S(=O)(=O)N3CCCC3)cc2F)cn1` [Example 344, 5-(3-Fluoro-2′-(pyrrolidin-1-ylsulfonyl)-[1,1′-biphenyl]-4-yl)pyridin-2-amine] showed a Ki in test [1] (setting [3]) of 81 nM. The IC50 in test [2] (setting [4]) is above 10000 nM.

Regarding `Nc1ccc(-c2ccc(-c3ccccc3S(=O)(=O)N3CCCCC3)cc2F)cn1` [Example 345, 5-(3-Fluoro-2′-(piperidin-1-ylsulfonyl)-[1,1′-biphenyl]-4-yl)pyridin-2-amine], the Ki in test [1] (setting [3]) came out at 28 nM. For the same compound, the IC50 in test [2] (setting [4]) stood at 259 nM.

With `Nc1ccc(-c2ccc(-c3ccccc3S(=O)(=O)NC3CCCCC3)cc2F)cn1` [Example 346, 4′-(6-Aminopyridin-3-yl)-N-cyclohexyl-3′-fluoro-[1,1′-biphenyl]-2-sulfonamide], the Ki in test [1] (setting [3]) was found to be 5 nM. Further, the IC50 in test [2] (setting [4]) turned out to be 95 nM.

In turn, `CC(C)CNS(=O)(=O)c1ccccc1-c1ccc(-c2ccc(N)nc2)c(F)c1` [Example 348, 4′-(6-Aminopyridin-3-yl)-3′-fluoro-N-iso-butyl-[1,1′-biphenyl]-2-sulfonamide] came in with a Ki in test [1] (setting [3]) of 5 nM. The IC50 in test [2] (setting [4]) was found to be 106 nM.

In test [1] (setting [3]), `CCC(C)(C)NS(=O)(=O)c1ccccc1-c1ccc(-c2ccc(N)nc2)c(F)c1` [Example 349, 4′-(6-Aminopyridin-3-yl)-3′-fluoro-N-(tert-pentyl)-[1,1′-biphenyl]-2-sulfonamide] gave a Ki of 1 nM. The IC50 in test [2] (setting [4]) was 13 nM.

On to `CC(C)(NS(=O)(=O)c1ccccc1-c1ccc(-c2ccc(N)nc2)c(F)c1)C(F)(F)F` [Example 350, 4′-(6-Aminopyridin-3-yl)-3′-fluoro-N-(1,1,1-trifluoro-2-methylpropan-2-yl)-[1,1′-biphenyl]-2-sulfonamide], for which the affinity in test [1] (setting [3]), expressed as Ki, was 2 nM. Also, the IC50 in test [2] (setting [4]) was 26 nM.

In the case of `Nc1ccc(-c2ccc(-c3ccccc3S(=O)(=O)N[C@@H](c3ccccc3)C(F)(F)F)cc2F)cn1` [Example 351, (S)-4′-(6-Aminopyridin-3-yl)-3′-fluoro-N-(2,2,2-trifluoro-1-phenylethyl)-[1,1′-biphenyl]-2-sulfonamide], in test [1] (setting [3]), the Ki came out at 17 nM. Besides, the IC50 in test [2] (setting [4]) was 297 nM.

For `CC1(NS(=O)(=O)c2ccccc2-c2ccc(-c3ccc(N)nc3)c(F)c2)CCC1` [Example 353, 4′-(6-Aminopyridin-3-yl)-3′-fluoro-N-(1-methylcyclobutyl)-[, 1′-biphenyl]-2-sulfonamide], affinity in test [1] (setting [3]) was put at a Ki of 1 nM. In test [2] (setting [4]), the IC50 was found to be 20 nM.

`Nc1ccc(-c2ccc(-c3ccccc3S(=O)(=O)N3CCS(=O)(=O)CC3)cc2F)cn1` [Example 354, 4-((4′-(6-Aminopyridin-3-yl)-3′-fluoro-[1,1′-biphenyl]-2-yl)sulfonyl)thiomorpholine 1,1-dioxide] came in with a Ki in test [1] (setting [3]) of 37 nM. Besides, in test [2] (setting [4]), the IC50 worked out at 93 nM.

As to `C[C@H](NS(=O)(=O)c1ccccc1-c1ccc(-c2ccc(N)nc2)c(F)c1)C(F)(F)F` [Example 355, (S)-4′-(6-Aminopyridin-3-yl)-3′-fluoro-N-(1,1,1-trifluoropropan-2-yl)-[1,1′-biphenyl]-2-sulfonamide], the Ki in test [1] (setting [3]) was 5 nM. In addition, the IC50 in test [2] (setting [4]) is 29 nM.

`Nc1ccc(-c2ccc(-c3ccccc3S(=O)(=O)N3C[C@@H]4C[C@H]3CO4)cc2F)cn1` [Example 356, 5-(2′-((1S,4S)-2-Oxa-5-azabicyclo[2.2.1]heptan-5-ylsulfonyl)-3-fluoro-[1,1′-biphenyl]-4-yl)pyridin-2-amine] showed a Ki in test [1] (setting [3]) of 32 nM. Besides, the IC50 in test [2] (setting [4]) stood at 107 nM.

The term Ki denotes a measure of affinity in units of concentration, obtained from inhibition or displacement. As a reminder, the IC50 is the point on the concentration scale where inhibition reaches its midpoint.

(Values after US9079866B2, “Flap modulators” (JANSSEN PHARMACEUTICA NV, priority 2013, dated 2015).)
